# Test results published in patent US10253002B2, “Compounds and methods of treating infections” (Neoculi Pty Ltd., priority 2013, dated 2019).
# Where “and” joins values, the source holds several entries; their conditions need not be identical. Equal values may be shown once. Read-outs that look alike come from different tables or passages of the source.
# What was measured:
# S. aureus MK01 and KC01 = assay: MIC, Example 8; assay type: cell-based; details: Staphylococcus aureus, MK01ANDKC01, S. aureus KC01
# Text: Two Staphylococcus aureus isolates were used in the following experiments; S. aureus MK01 a human skin strain, and S. aureus KC01 an equine skin strain. These isolates were identified by Gram stain and biochemical methods, including the Remel Staphaurex commercial kit. […] As this isolate has previously been speciated, it was not subjected to further testing, except for observation of pure, characteristic growth on blood agar.
# S. pneumoniae strain D39 [1] = assay: MBC time kill studies (relative MBC at time points); assay type: cell-based, Streptococcus pneumoniae; details: within 5 h
# Text: MBC kill kinetics assays involved the preparation of three 96 well microtitre trays.
# [2] = water containing 4% DMSO, following initial dilution in 100% DMSO; recent independent research; cited from earlier work
# [3] = Bioassay ranking of the analogues tested; details: M + R (MRSA and VRE combined)
# S. pneumoniae strain D39 [4] = assay: Macro-broth dilution time kill studies; assay type: cell-based, Streptococcus pneumoniae
# Procedure: Bacterial suspensions and working antibiotic stocks were prepared as described above. [For preparing macro-broth dilutions, 20 mL tubes were filled each with 9 mL of 4% LHB:CAMHB. 9 mL of a working antimicrobial stock was diluted 1:2 when added to one of the tubes, and then serial diluted down from a high to low concentration of antimicrobial. 1 mL of S. pneumoniae bacterial suspension was added to the appropriate tubes, including the positive control. […] At every 2-3 h during the first 12 h of growth and then at 24 h and 48 h, 50 μL of each bacterial suspension was spread plated onto HBA and incubated at 37° C. with 5% CO2 for 16-24 h.]
# Table 17 below indicates the concentrations used for each antimicrobial. Cultures were incubated at 37° C. in 5% CO2 with gentle manual tilting every 10 min for the first 12 h. Viable counts from 50 μL aliquots of each concentration were read following incubation at 37° C. in 5% CO2 for 24 h. The pH of each sample was measured at specific time points using pH indicator strips. Confluent growth was defined when more than 1000 colonies were counted per plate. A bactericidal effect was defined as a 1000 fold reduction (99.9%) of the original cell suspension determined at 24 h for each concentration.
# [5] = Visual analysis of solubility in diluents and media, Example 5; assay type: physicochemical
# VRE = assay: Broth microdilution MIC, Example 7 (NCL812 and analogues); assay type: cell-based, Enterococcus spp.; details: for MIC: Enterococcus, VRE
# How it was run: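 Duplicates per isolate, repeated a third time if >one two-fold dilution apart. MIC50, MIC20 and range calculated per bacterial group.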
# MRSA = assay: Kill kinetics assay, Example 7; assay type: cell-based, Staphylococcus aureus
# Procedure: MRSA/VRE were grown overnight on Columbia SBA at 37° C. A few colonies of bacteria were then suspended in CAMHB and adjusted to an optical density of 0.08 to 0.10. The bacterial suspension was diluted 1:10. […] The tubes were incubated at 37° C. In order to determine the number of viable bacteria present at various time points, a 100 μL aliquot was removed from each tube and diluted in normal saline. Then, 100 μL of each dilution was spread onto colony count agar, in duplicate, and incubated for 48 h at 37° C. After 24 h the numbers of colonies present on each plate were counted and therefore the number of viable bacteria present in the original suspension enumerated. Plates were re-checked after 48 hours.
structure (smiles),measurement,setting,value
"N=C(N/N=C/c1ccc(Cl)cc1)N/N=C/c1ccc(Cl)cc1 [NCL812, 1,3-bis[(E)-(4-chlorophenyl)methyleneamino]guanidine]",MIC,S. aureus MK01 and KC01,2 µg/mL
same,decrease in MBC,S. pneumoniae strain D39 [1],~3 fold
same,solubility,[2],complete solubility
same,M + R,[3],2.375 µg/mL
same,growth in viable counts,S. pneumoniae strain D39 [4]; 2 μg/mL NCL812,Consistent confluent growth
same,time post-exposure at which compound appeared to be inactivated (increased growth after),S. pneumoniae strain D39 [4]; NCL812 at 4 μg/mL and 8 μg/mL,11 h
same,time to eliminate bacterial growth,S. pneumoniae strain D39 [4]; between 16 μg/mL and 64 μg/mL NCL812,≤ 8 h
same,Visual analysis of solubility,[5]; Diluent CAMHB,Turbid
same,Visual analysis of solubility,[5]; Diluent DMSO,Transparent
same,Visual analysis of solubility,[5]; Diluent PBS,Precipitate
same,Visual analysis of solubility,[5]; Media 4% LHB:CAMHB,Turbid
same,Visual analysis of solubility,[5]; Media 10% horse serum-supplemented broth,Precipitate
same,MIC,"VRE; 24 h, read-out: MIC (μg/ml) at 24 hours, VRE 1, isolate VRE 1, 24 hours, 1st and 2nd replicate rows",2 µg/mL
same,MIC,"VRE; 24 h, read-out: MIC (μg/ml) at 24 hours, VRE 2, isolate VRE 2, 24 hours, 1st and 2nd replicate rows",2 µg/mL
same,MIC,"VRE; VRE 002 [H12c], Phase I, 1st, read-out: MIC",4 µg/mL
same,MIC,"VRE; VRE 002 [H12c], Phase I, 2nd, read-out: MIC",4 µg/mL
same,MIC,"VRE; VRE 002 [H12c], Phase II, 1st, read-out: MIC",2 µg/mL
same,MIC,"VRE; VRE 002 [H12c], Phase II, 2nd, read-out: MIC",2 µg/mL
same,MIC,"VRE; VRE 003 [H14t], Phase I, 1st, read-out: MIC",2 µg/mL
same,MIC,"VRE; VRE 003 [H14t], Phase I, 2nd, read-out: MIC",2 µg/mL
same,MIC,"VRE; VRE 003 [H14t], Phase II, 1st, read-out: MIC",2 µg/mL
same,MIC,"VRE; VRE 003 [H14t], Phase II, 2nd, read-out: MIC",2 µg/mL
same,MIC,"VRE; VRE 004 [H16c], Phase I, 1st, read-out: MIC",4 µg/mL
same,MIC,"VRE; VRE 004 [H16c], Phase I, 2nd, read-out: MIC",4 µg/mL
same,MIC,"VRE; VRE 004 [H16c], Phase II, 1st, read-out: MIC",2 µg/mL
same,MIC,"VRE; VRE 004 [H16c], Phase II, 2nd, read-out: MIC",2 µg/mL
same,MIC,"VRE; VRE 005 [H17c], Phase I, 1st, read-out: MIC",2 µg/mL
same,MIC,"VRE; VRE 005 [H17c], Phase I, 2nd, read-out: MIC",2 µg/mL
same,MIC,"VRE; VRE 005 [H17c], Phase II, 1st, read-out: MIC",2 µg/mL
same,MIC,"VRE; VRE 005 [H17c], Phase II, 2nd, read-out: MIC",2 µg/mL
same,MIC,"VRE; VRE 006 [H19t], Phase I, 1st, read-out: MIC",2 µg/mL
same,MIC,"VRE; VRE 006 [H19t], Phase I, 2nd, read-out: MIC",2 µg/mL
same,MIC,"VRE; VRE 006 [H19t], Phase II, 1st, read-out: MIC",2 µg/mL
same,MIC,"VRE; VRE 006 [H19t], Phase II, 2nd, read-out: MIC",2 µg/mL
same,MIC,"VRE; VRE 007 [H23c], Phase I, 1st, read-out: MIC",4 µg/mL
same,MIC,"VRE; VRE 007 [H23c], Phase I, 2nd, read-out: MIC",4 µg/mL
same,MIC,"VRE; VRE 007 [H23c], Phase II, 1st, read-out: MIC",2 µg/mL
same,MIC,"VRE; VRE 007 [H23c], Phase II, 2nd, read-out: MIC",2 µg/mL
same,MIC,"VRE; VRE 008 [H16c(dc)], Phase I, 1st, read-out: MIC",4 µg/mL
same,MIC,"VRE; VRE 008 [H16c(dc)], Phase I, 2nd, read-out: MIC",4 µg/mL
same,MIC,"VRE; VRE 008 [H16c(dc)], Phase II, 1st, read-out: MIC",2 µg/mL
same,MIC,"VRE; VRE 008 [H16c(dc)], Phase II, 2nd, read-out: MIC",2 µg/mL
same,MIC,"VRE; VRE 009 [H25c], Phase I, 1st, read-out: MIC",4 µg/mL
same,MIC,"VRE; VRE 009 [H25c], Phase I, 2nd, read-out: MIC",4 µg/mL
same,MIC,"VRE; VRE 009 [H25c], Phase II, 1st, read-out: MIC",2 µg/mL
same,MIC,"VRE; VRE 009 [H25c], Phase II, 2nd, read-out: MIC",2 µg/mL
same,MIC,"VRE; VRE 010 [H26c(w)], Phase I, 1st, read-out: MIC",4 µg/mL
same,MIC,"VRE; VRE 010 [H26c(w)], Phase I, 2nd, read-out: MIC",4 µg/mL
same,MIC,"VRE; VRE 010 [H26c(w)], Phase II, 1st, read-out: MIC",2 µg/mL
same,MIC,"VRE; VRE 010 [H26c(w)], Phase II, 2nd, read-out: MIC",2 µg/mL
same,MIC,"VRE; VRE 011 [H26c(dc)], Phase I, 1st, read-out: MIC",2 µg/mL
same,MIC,"VRE; VRE 011 [H26c(dc)], Phase I, 2nd, read-out: MIC",4 µg/mL
same,MIC,"VRE; VRE 011 [H26c(dc)], Phase II, 1st, read-out: MIC",2 µg/mL
same,MIC,"VRE; VRE 011 [H26c(dc)], Phase II, 2nd, read-out: MIC",2 µg/mL
same,MIC,"VRE; VRE 012 [H35t], Phase I, 1st, read-out: MIC",2 µg/mL
same,MIC,"VRE; VRE 012 [H35t], Phase I, 2nd, read-out: MIC",2 µg/mL
same,MIC,"VRE; VRE 012 [H35t], Phase II, 1st, read-out: MIC",2 µg/mL
same,MIC,"VRE; VRE 012 [H35t], Phase II, 2nd, read-out: MIC",2 µg/mL
same,MIC,"VRE; VRE 013 [H37c(w)], Phase I, 1st, read-out: MIC",2 µg/mL
same,MIC,"VRE; VRE 013 [H37c(w)], Phase I, 2nd, read-out: MIC",2 µg/mL
same,MIC,"VRE; VRE 013 [H37c(w)], Phase II, 1st, read-out: MIC",2 µg/mL
same,MIC,"VRE; VRE 013 [H37c(w)], Phase II, 2nd, read-out: MIC",2 µg/mL
same,MIC,"VRE; VRE 014 [H37c(g)], Phase I, 1st, read-out: MIC",4 µg/mL
same,MIC,"VRE; VRE 014 [H37c(g)], Phase I, 2nd, read-out: MIC",4 µg/mL
same,MIC,"VRE; VRE 014 [H37c(g)], Phase II, 1st, read-out: MIC",2 µg/mL
same,MIC,"VRE; VRE 014 [H37c(g)], Phase II, 2nd, read-out: MIC",2 µg/mL
same,MIC,"VRE; bioassay ranking, read-out: VRE",1.75 µg/mL
same,"MIC (μg/ml) at 24 hours, VRE 1","VRE; isolate VRE 1, 24 hours, 1st and 2nd replicate rows",2 µg/mL
same,"MIC (μg/ml) at 24 hours, VRE 2","VRE; isolate VRE 2, 24 hours, 1st and 2nd replicate rows",2 µg/mL and 1 µg/mL
same,numbers of bacteria versus control,"MRSA; after 24 h, all NCL812 concentrations",not significantly different to the control
same,reduction in comparison to the growth control,MRSA; at 4 h,at least 2.5 log10 CFU/mL
same,difference between the control and bacteria exposed to NCL812,MRSA; at 8 h,≥ 3.5 log10 CFU/mL
